Laboratory results as given in PMC6271529, “Studies on the Anticonvulsant Activity and Influence on GABA-ergic Neurotransmission of 1,2,4-Triazole-3-thione-Based Compounds” (Molecules, 2014).
Read-outs that look alike come from different tables or passages of the source.

How the values were obtained:
[1] = test system: GABAA receptors; assay: Radioligand binding assay, [3H]muscimol, rat cerebral cortex; settings: for Percent of Specific Binding, GABAA: compound 1 × 10^−6 M, [3H]muscimol, rat cerebral cortex; for effect of added compound on affinity of GABA to GABAA receptors: radioligand binding, GABA in combination with compound;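 as to Percent of Specific Binding, GABAA: low percentages indicate weak binding of the compound to the receptor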
Description: Binding experiments were conducted in 96-well microplates in a total volume of 200 μL of appropriate buffer. The reaction mixture included 50 μL solution of test compound, 50 μL of radioligand, and […] the tissue suspension. Rat cerebral cortex was used for each receptor. […] Radioligand binding data were analyzed using iterative curve fitting routines (GraphPAD/Prism, Version 3.0, San Diego, CA, USA). Ki values were calculated from the Cheng and Prusoff equation [36].

[2] = test system: threshold for electroconvulsions; set-up: method as in PMID 22732650; settings: cited from earlier work
[3] = test system: benzodiazepine (BDZ)-binding sites; assay: Radioligand binding assay, [3H]flunitrazepam, rat cerebral cortex; settings: compound 1 × 10^−6 M;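 also: low percentages indicate weak binding of the compound to the site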
Description: Binding experiments were conducted in 96-well microplates in a total volume of 200 μL of appropriate buffer. The reaction mixture included 50 μL solution of test compound, 50 μL of radioligand, and […] the tissue suspension. Rat cerebral cortex was used for each receptor. The radioactivity was measured in MicroBeta TriLux 1450-liquid scintillation counter (PerkinElmer, Waltham, MA, USA). Radioligand binding data were analyzed using iterative curve fitting routines (GraphPAD/Prism, Version 3.0, San Diego, CA, USA). Ki values were calculated from the Cheng and Prusoff equation [36].

[4] = test system: maximal electroshock-induced seizures; assay: Maximal electroshock-induced seizure (MES) test in mice; type: in vivo, mouse; settings: for p/t, number of animals protected against MES-induced seizures / number tested / responders at 300 mg/kg: 300 mg/kg i.p.; for responders at 300 mg/kg / ED50: Mus musculus, ip; for responders at 300 mg/kg: read-out: percent of animals protected against MES-induced seizures; for PI (TD50/ED50): protective index; for onset of action: significant protection as early as 15 min after parenteral administration, MES
Outline: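 Mice given compound i.p. (300 mg/kg screen, then graded doses) 15, 30, 60 or 120 min before ear-clip electroshock (25 mA, 50 Hz, 0.2 s); tonic hind limb extension scored as seizure. ED50 (dose protecting 50% of animals) from Litchfield–Wilcoxon dose-response lines.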

[5] = sub-protective doses of the compound co-administered with valproate; cited from earlier work
[6] = test system: motor performance in mice; assay: Chimney test (motor performance impairment, acute adverse effects); settings: i.p.
Description: Adult male Swiss mice (weighing 22–26 g) that were kept in colony cages with free access to food and tap water, housed under standardized housing conditions, were used. After seven days of adaptation to laboratory conditions, the animals were randomly assigned to experimental groups each comprised of eight mice. Each mouse was used only once. Procedures involving animals and their care were conducted in accordance with current European Community and Polish legislation on animal experimentation. The experimental protocols and procedures described in this manuscript were approved by the First Local Ethics Committee at the Medical University in Lublin and the Second Local Ethics Committee at the University of Life Sciences in Lublin and complied with the European Communities Council Directive of 24 November 1986 (86/609/EEC).
In this test, the animals had to climb backwards up a plastic tube (3 cm inner diameter, 30 cm length), and motor performance impairment was indicated by the inability of the mice to climb backward up the transparent tube within 60 s. […] To evaluate each TD50 value, at least four groups of animals (each group consisted of eight mice) injected with various doses of the appropriate compound were challenged with the chimney test. A dose-response relationship line was calculated on the basis of the percentage of mice showing motor deficits by means of the log-probit method according to Litchfield and Wilcoxon.

[7] = pretreatment time 120 min, mice
[8] = 0.25 h, pretreatment time 15 min, mice
[9] = 0.5 h, pretreatment time 30 min, mice
[10] = 1 h, pretreatment time 60 min, mice
[11] = 2 h, pretreatment time 120 min, mice
[12] = pretreatment time 15 min, mice, read-out: ED50 ± S.E. (MES test)
[13] = pretreatment time 30 min, mice, read-out: ED50 ± S.E. (MES test)
[14] = pretreatment time 60 min, mice, read-out: ED50 ± S.E. (MES test)
[15] = pretreatment time 120 min, mice, read-out: ED50 ± S.E. (MES test)
[16] = chimney TD50 / MES ED50, pretreatment time 15 min
[17] = chimney TD50 / MES ED50, pretreatment time 30 min
[18] = chimney TD50 / MES ED50, pretreatment time 60 min
[19] = chimney TD50 / MES ED50, pretreatment time 120 min

Compound | Percent of Specific Binding, GABAA [1] | Percent of Specific Binding, BDZ [3] | p/t, number of animals protected against MES-induced seizures / number tested ([4]; pretreatment time 15 min, mice) | p/t, number of animals protected against MES-induced seizures / number tested ([4]; pretreatment time 30 min, mice) | p/t, number of animals protected against MES-induced seizures / number tested ([4]; pretreatment time 60 min, mice) | p/t, number of animals protected against MES-induced seizures / number tested [4, 7] | responders at 300 mg/kg [4, 8] | responders at 300 mg/kg [4, 9] | responders at 300 mg/kg [4, 10] | responders at 300 mg/kg [4, 11] | ED50 [4, 12] | ED50 [4, 13] | ED50 [4, 14] | ED50 [4, 15] | PI (TD50/ED50) [4, 16] | PI (TD50/ED50) [4, 17] | PI (TD50/ED50) [4, 18] | PI (TD50/ED50) [4, 19] | onset of action ([4]; mice) | melting point | also measured
S=c1[nH]nc(-c2cccc(Cl)c2)n1-c1ccc(Br)cc1 [Compound 6a, 4-(4-Bromophenyl)-5-(3-chlorophenyl)-2,4-dihydro-3H-1,2,4-triazole-3-thione] | 17% | 20% | 4/8 | 6/8 | 6/8 | 3/8 | 50% | 75% | 75% | 37.5% | 298 ± 21.1 mg/kg | 218 ± 21.7 mg/kg | 209 ± 27.3 mg/kg | 336 ± 14 mg/kg | 1.2 | 1.8 | 1.9 | 1.3 | quick onset of action | – | effect of added compound on affinity of GABA to GABAA receptors [1]: did not lead to an increase; elevation of the threshold for electroconvulsions [2]: 70%; anticonvulsant activity (in words) ([4]; MES test, mice): slightly weaker than that of valproate
Cc1ccc(-n2c(-c3cccc(Cl)c3)n[nH]c2=S)cc1 [Compound 10a, 5-(3-Chlorophenyl)-4-(4-methylphenyl)-2,4-dihydro-3H-1,2,4-triazole-3-thione] | 2% | 9% | 8/8 | 8/8 | 8/8 | 6/8 | – | – | – | – | – | – | – | – | 5.9 | 4.5 | 1.8 | 1.4 | quick onset of action | – | effect of added compound on affinity of GABA to GABAA receptors [1]: did not lead to an increase; ED50 ([4]; read-out: ED50 ± S.E. (MES test), i.p., pretreatment time 15 min, mice): 57 ± 9.4 mg/kg; ED50 ([4]; read-out: ED50 ± S.E. (MES test), i.p., pretreatment time 30 min, mice): 74.5 ± 8.1 mg/kg; ED50 ([4]; read-out: ED50 ± S.E. (MES test), i.p., pretreatment time 60 min, mice): 187 ± 18.8 mg/kg; ED50 ([4]; read-out: ED50 ± S.E. (MES test), i.p., pretreatment time 120 min, mice): 281 ± 13.6 mg/kg; elevation of total brain concentration of valproate [5]: 52%
Fc1ccccc1-n1c(-c2ccc(Cl)cc2)n[nH]c1=S [Compound 12a, 5-(4-Chlorophenyl)-4-(2-fluorophenyl)-2,4-dihydro-3H-1,2,4-triazole-3-thione] | 13% | 18% | 6/8 | 6/8 | 7/8 | 7/8 | 75% | 75% | 87.5% | 87.5% | 208 ± 25.3 mg/kg | 186 ± 24.6 mg/kg | 218 ± 21.7 mg/kg | 209 ± 27.3 mg/kg | 2.6 | 2.7 | 1.9 | 2.3 | quick onset of action | 240 to 242 °C | ED50 ([4]; pretreatment times 15, 30, 60, 120 min, read-out: ED50 (MES), range over pretreatment times): 186 to 218 mg/kg
S=c1[nH]nc(-c2ccc(Cl)cc2)n1-c1ccccc1Br [Compound 15a, 4-(2-Bromophenyl)-5-(4-chlorophenyl)-2,4-dihydro-3H-1,2,4-triazole-3-thione] | 8% | 21% | 6/8 | 8/8 | 8/8 | 7/8 | 75% | 100% | 100% | 87.5% | 183 ± 25.1 mg/kg | 105 ± 16.5 mg/kg | 137 ± 19.9 mg/kg | 176 ± 25 mg/kg | 1.5 | 2.4 | 1.8 | 1.4 | quick onset of action | 250 to 252 °C | –
CSc1ccc(-n2c(-c3ccc(Cl)cc3)n[nH]c2=S)cc1 [Compound 17a, 5-(4-Chlorophenyl)-4-[4-(methylsulfanyl)phenyl]-2,4-dihydro-3H-1,2,4-triazole-3-thione] | 21% | 6% | 0/8 | 0/8 | 1/8 | 0/8 | 0% | 0% | 12.5% | 0% | – | – | – | – | – | – | – | – | – | 214 to 216 °C | –
CCCC(CCC)C(=O)O [Valproate, Magnesium valproate] | – | – | – | – | – | – | – | – | – | – | – | 217 ± 9.4 mg/kg | 218 ± 18.9 mg/kg | 247 ± 21.6 mg/kg | – | – | – | – | – | – | TD50 ± S.E. (chimney test) ([6]; pretreatment time 15 min): 363.3 ± 14.2 mg/kg; TD50 ± S.E. (chimney test) ([6]; pretreatment time 30 min): 372.9 ± 16.9 mg/kg; TD50 ± S.E. (chimney test) ([6]; pretreatment time 60 min): 417.3 ± 9.5 mg/kg; TD50 ± S.E. (chimney test) ([6]; pretreatment time 120 min): 512.3 ± 20.2 mg/kg
